The values that follow are results of earlier work, collected in US20040081632A1, “Novel antiperspirant/deodorant active for no white residue sticks and soft solids” (priority 2002, published 2004).

For this data set the following is noted: neat organic solvent.
As for 1-methyl 2-propanol, the RI is on record as 1.403.

Consider `CCOCCO` [2 ethoxy ethanol], for which the RI is 1.407. In the case of `COCCO` [2 methoxy ethanol], the RI is 1.402. `COC(C)CCO` (stereo not drawn) [3 methoxy butanol]: the RI is given as 1.411.

Regarding `CC(O)CO` (stereo not drawn) [propylene glycol], the RI was 1.430. In the case of `CC(O)COC(C)COC(C)CO` (stereo not drawn) [tripropylene glycol], the RI was 1.454.
